In ChEMBL document CHEMBL3817833, “Synthesis and evaluation of antitubercular activity of fluorinated 5-aryl-4-(hetero)aryl substituted pyrimidines” (Bioorg Med Chem, 2016):
In brackets after ≈: the same amount, converted by molar mass.

Experiments:
Mycolicibacter terrae = test: Antimycobacterial activity against Mycobacterium terrae after […] by microbroth dilution method; assay type: functional
Mycobacterium avium = test: Antimycobacterial activity against Mycobacterium avium after […] by microbroth dilution method; assay type: functional
[1] = test system: Mycobacterium tuberculosis; test: Antimycobacterial activity against Mycobacterium tuberculosis H37Rv after […] by microbroth dilution method; assay type: functional
[2] = Acute toxicity in po dosed mouse administered as single dose measured after 14 days; assay type: organism-based; conditions: in vivo
[3] = Acute toxicity in po dosed mouse; assay type: organism-based; conditions: in vivo

## c1ccc(-c2cncnc2)cc1
Mycolicibacter terrae
  MIC: 80 µM (≈ 12.5 µg/mL)
Mycobacterium avium
  MIC: 80 µM (≈ 12.5 µg/mL)
[1]
  MIC: 80 µM (≈ 12.5 µg/mL)

## Fc1ccccc1-c1cncnc1
Mycolicibacter terrae
  MIC: 71.8 µM (≈ 12.5 µg/mL)
Mycobacterium avium
  MIC: 71.8 µM (≈ 12.5 µg/mL)
[1]
  MIC: 71.8 µM (≈ 12.5 µg/mL)

## Fc1cc(F)cc(-c2cncnc2-c2cccs2)c1
Mycolicibacter terrae
  MIC: 45.6 µM (≈ 12.5 µg/mL)
Mycobacterium avium
  MIC: 45.6 µM (≈ 12.5 µg/mL)
[1]
  MIC: 45.6 µM (≈ 12.5 µg/mL)

## Fc1ccc(-c2cncnc2-c2ccco2)cc1
Mycolicibacter terrae
  MIC: 52 µM (≈ 12.5 µg/mL)
Mycobacterium avium
  MIC: 52 µM (≈ 12.5 µg/mL)
[1]
  MIC: 52 µM (≈ 12.5 µg/mL)

## Fc1ccc(-c2cncnc2)cc1
Mycolicibacter terrae
  MIC: 71.8 µM (≈ 12.5 µg/mL)
Mycobacterium avium
  MIC: 71.8 µM (≈ 12.5 µg/mL)
[1]
  MIC: 71.8 µM (≈ 12.5 µg/mL)

## FC(F)(F)c1cc(-c2cncnc2-c2cccs2)cc(C(F)(F)F)c1
Mycolicibacter terrae
  MIC: 33.4 µM (≈ 12.5 µg/mL)
Mycobacterium avium
  MIC: 33.4 µM (≈ 12.5 µg/mL)
[1]
  MIC: 33.4 µM (≈ 12.5 µg/mL)

## Fc1ccc(-c2cncnc2-c2cccs2)cc1
Mycolicibacter terrae
  MIC: 12.5 µM (≈ 3.2 µg/mL)
Mycobacterium avium
  MIC: 12.5 µM (≈ 3.2 µg/mL)
[1]
  MIC: 48.8 µM (≈ 12.5 µg/mL)

## Fc1cccc(-c2cncnc2-c2cccs2)c1
Mycolicibacter terrae
  MIC: 12.5 µM (≈ 3.2 µg/mL)
Mycobacterium avium
  MIC: 12.5 µM (≈ 3.2 µg/mL)
[1]
  MIC: 48.8 µM (≈ 12.5 µg/mL)

## FC(F)(F)c1cccc(-c2cncnc2-c2cccs2)c1
Mycolicibacter terrae
  MIC: 4.9 µM (≈ 1.5 µg/mL)
Mycobacterium avium
  MIC: 4.9 µM (≈ 1.5 µg/mL)
[1]
  MIC: 4.9 µM (≈ 1.5 µg/mL)

## c1ccc(-c2cncnc2-c2ccco2)cc1
[2]
  LD50 at 336 h: 150 mg/kg
Mycolicibacter terrae
  MIC: 1.57 µM (≈ 0.349 µg/mL)
Mycobacterium avium
  MIC: 1.57 µM (≈ 0.349 µg/mL)
[1]
  MIC: 1.57 µM (≈ 0.349 µg/mL)

## c1ccc(-c2cncnc2-c2cccs2)cc1
Mycolicibacter terrae
  MIC: 26 µM (≈ 6.2 µg/mL)
Mycobacterium avium
  MIC: 26 µM (≈ 6.2 µg/mL)
[1]
  MIC: 26 µM (≈ 6.2 µg/mL)

## Fc1ccc(-c2cncnc2-c2cccs2)c(F)c1
Mycolicibacter terrae
  MIC: 45.6 µM (≈ 12.5 µg/mL)
Mycobacterium avium
  MIC: 45.6 µM (≈ 12.5 µg/mL)
[1]
  MIC: 45.6 µM (≈ 12.5 µg/mL)

## Fc1cccc(-c2cncnc2-c2ccco2)c1
Mycolicibacter terrae
  MIC: 6.24 µM (≈ 1.5 µg/mL)
Mycobacterium avium
  MIC: 6.24 µM (≈ 1.5 µg/mL)
[1]
  MIC: 6.24 µM (≈ 1.5 µg/mL)

## Fc1cc(F)cc(-c2cncnc2-c2ccco2)c1
Mycolicibacter terrae
  MIC: 24 µM (≈ 6.2 µg/mL)
Mycobacterium avium
  MIC: 24 µM (≈ 6.2 µg/mL)
[1]
  MIC: 24 µM (≈ 6.2 µg/mL)

## FC(F)(F)c1ccccc1-c1cncnc1
Mycolicibacter terrae
  MIC: 27.7 µM (≈ 6.2 µg/mL)
Mycobacterium avium
  MIC: 27.7 µM (≈ 6.2 µg/mL)
[1]
  MIC: 27.7 µM (≈ 6.2 µg/mL)

## FC(F)(F)c1ccc(-c2cncnc2)cc1
Mycolicibacter terrae
  MIC: 55.8 µM (≈ 12.5 µg/mL)
Mycobacterium avium
  MIC: 55.8 µM (≈ 12.5 µg/mL)
[1]
  MIC: 55.8 µM (≈ 12.5 µg/mL)

## FC(F)(F)c1ccccc1-c1cncnc1-c1cccs1
Mycolicibacter terrae
  MIC: 20.2 µM (≈ 6.2 µg/mL)
Mycobacterium avium
  MIC: 20.2 µM (≈ 6.2 µg/mL)
[1]
  MIC: 20.2 µM (≈ 6.2 µg/mL)

## FC(F)(F)c1ccc(-c2cncnc2)c(C(F)(F)F)c1
Mycolicibacter terrae
  MIC: 42.8 µM (≈ 12.5 µg/mL)
Mycobacterium avium
  MIC: 42.8 µM (≈ 12.5 µg/mL)
[1]
  MIC: 42.8 µM (≈ 12.5 µg/mL)

## Fc1ccc(-c2cncnc2)c(F)c1
Mycolicibacter terrae
  MIC: 16.1 µM (≈ 3.1 µg/mL)
Mycobacterium avium
  MIC: 16.1 µM (≈ 3.1 µg/mL)
[1]
  MIC: 16.1 µM (≈ 3.1 µg/mL)

## FC(F)(F)c1ccc(-c2cncnc2-c2ccco2)cc1
Mycolicibacter terrae
  MIC: 43.1 µM (≈ 12.5 µg/mL)
Mycobacterium avium
  MIC: 43.1 µM (≈ 12.5 µg/mL)
[1]
  MIC: 43.1 µM (≈ 12.5 µg/mL)

## FC(F)(F)c1ccc(-c2cncnc2-c2ccco2)c(C(F)(F)F)c1
[2]
  LD50 at 336 h: 600 mg/kg
Mycolicibacter terrae
  MIC: 0.98 µM (≈ 0.351 µg/mL)
Mycobacterium avium
  MIC: 1.95 µM (≈ 0.699 µg/mL)
[1]
  MIC: 1.95 µM (≈ 0.699 µg/mL)

## Fc1cccc(-c2cncnc2)c1
Mycolicibacter terrae
  MIC: 35.9 µM (≈ 6.25 µg/mL)
Mycobacterium avium
  MIC: 35.9 µM (≈ 6.25 µg/mL)
[1]
  MIC: 35.9 µM (≈ 6.25 µg/mL)

## Fc1cc(F)cc(-c2cncnc2)c1
[2]
  LD50 at 336 h: 300 mg/kg
Mycolicibacter terrae
  MIC: 3.64 µM (≈ 0.699 µg/mL)
Mycobacterium avium
  MIC: 3.64 µM (≈ 0.699 µg/mL)
[1]
  MIC: 3.64 µM (≈ 0.699 µg/mL)

## Fc1ccccc1-c1cncnc1-c1cccs1
Mycolicibacter terrae
  MIC: 12.5 µM (≈ 3.2 µg/mL)
Mycobacterium avium
  MIC: 12.5 µM (≈ 3.2 µg/mL)
[1]
  MIC: 48.8 µM (≈ 12.5 µg/mL)

## FC(F)(F)c1ccc(-c2cncnc2-c2cccs2)cc1
Mycolicibacter terrae
  MIC: 40.8 µM (≈ 12.5 µg/mL)
Mycobacterium avium
  MIC: 40.8 µM (≈ 12.5 µg/mL)
[1]
  MIC: 40.8 µM (≈ 12.5 µg/mL)

## Fc1ccc(-c2cncnc2-c2ccco2)c(F)c1
Mycolicibacter terrae
  MIC: 48.4 µM (≈ 12.5 µg/mL)
Mycobacterium avium
  MIC: 48.4 µM (≈ 12.5 µg/mL)
[1]
  MIC: 48.4 µM (≈ 12.5 µg/mL)

## Fc1ccccc1-c1cncnc1-c1ccco1
Mycolicibacter terrae
  MIC: 52 µM (≈ 12.5 µg/mL)
Mycobacterium avium
  MIC: 52 µM (≈ 12.5 µg/mL)
[1]
  MIC: 52 µM (≈ 12.5 µg/mL)

## FC(F)(F)c1cccc(-c2cncnc2-c2ccco2)c1
Mycolicibacter terrae
  MIC: 43.1 µM (≈ 12.5 µg/mL)
Mycobacterium avium
  MIC: 43.1 µM (≈ 12.5 µg/mL)
[1]
  MIC: 43.1 µM (≈ 12.5 µg/mL)

## FC(F)(F)c1ccc(-c2cncnc2-c2cccs2)c(C(F)(F)F)c1
Mycolicibacter terrae
  MIC: 16.6 µM (≈ 6.2 µg/mL)
Mycobacterium avium
  MIC: 16.6 µM (≈ 6.2 µg/mL)
[1]
  MIC: 16.6 µM (≈ 6.2 µg/mL)

## FC(F)(F)c1ccccc1-c1cncnc1-c1ccco1
Mycolicibacter terrae
  MIC: 43.1 µM (≈ 12.5 µg/mL)
Mycobacterium avium
  MIC: 43.1 µM (≈ 12.5 µg/mL)
[1]
  MIC: 43.1 µM (≈ 12.5 µg/mL)

## FC(F)(F)c1cccc(-c2cncnc2)c1
Mycolicibacter terrae
  MIC: 55.8 µM (≈ 12.5 µg/mL)
Mycobacterium avium
  MIC: 55.8 µM (≈ 12.5 µg/mL)
[1]
  MIC: 55.8 µM (≈ 12.5 µg/mL)

## FC(F)(F)c1cc(-c2cncnc2-c2ccco2)cc(C(F)(F)F)c1
Mycolicibacter terrae
  MIC: 8.65 µM (≈ 3.1 µg/mL)
Mycobacterium avium
  MIC: 8.65 µM (≈ 3.1 µg/mL)
[1]
  MIC: 8.65 µM (≈ 3.1 µg/mL)

## FC(F)(F)c1cc(-c2cncnc2)cc(C(F)(F)F)c1
Mycolicibacter terrae
  MIC: 5.13 µM (≈ 1.5 µg/mL)
Mycobacterium avium
  MIC: 5.13 µM (≈ 1.5 µg/mL)
[1]
  MIC: 5.13 µM (≈ 1.5 µg/mL)

## NNC(=O)c1ccncc1 [ISONIAZID]
Mycolicibacter terrae
  MIC: 0.73 µM (≈ 0.1 µg/mL)
Mycobacterium avium
  MIC: 0.73 µM (≈ 0.1 µg/mL)
[1]
  MIC: 0.73 µM (≈ 0.1 µg/mL)

## CC1COc2c(N3CCN(C)CC3)c(F)cc3c(=O)c(C(=O)O)cn1c23 (stereo not given) [OFLOXACIN]
Mycolicibacter terrae
  MIC: 0.28 µM (≈ 0.101 µg/mL)
Mycobacterium avium
  MIC: 0.28 µM (≈ 0.101 µg/mL)
[1]
  MIC: 0.28 µM (≈ 0.101 µg/mL)
[3]
  LD50: 5450 mg/kg

## NC(=O)c1cnccn1 [PYRAZINAMIDE]
[1]
  MIC: 102 µM (≈ 12.5 µg/mL)
